According to PubChem BioAssay AID1963970 (Molecular Pharmacology Branch, DTP, NCI, 2024):

Tested on: 931267-113-T-J1-PDC multicell spheroid viability
Test: Anticancer human tumor 931267-113-T-J1-PDC patient-derived colon adenocarcinoma cell line growth inhibition [PI3K]
Settings: for IC50: curve of first compound; for viability, T/C: stronger effect = lower value
Method in brief: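 Three cell types, namely tumor cells, endothelial cells and mesenchymal stem cells, formed each spheroid. Combinations with four PI3K inhibitors were screened at clinically achievable concentrations decreasing by half-log, and spheroid viability was recorded.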
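Note: viability read 7 days after compound addition.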

**Q.** What does the source list for `CC1(C)CCC(Nc2ncc(C(F)(F)F)c(-c3c[nH]c4c(P(C)(C)=O)c(C#N)ccc34)n2)CN1` (configuration not stated) + CC(Nc1ccc2c(c1)OCCn1cc(N3C(=O)OCC3C(F)F)nc1-2)C(N)=O?
**A.** IC50 (second compound 0.00316 µM): > 10 µM; IC50 (second compound 0.01 µM): > 10 µM; IC50 (second compound 0.0316 µM): 8.54 µM; IC50 (second compound 0.1 µM): > 10 µM; IC50 (second compound 0.316 µM): 6.39 µM; IC50 (second compound 1 µM): 4.8 µM; viability, T/C (second compound 0.00316 µM, first compound 0.0316 µM): 99.7%; viability, T/C (second compound 0.00316 µM, first compound 0.1 µM): 88.6%; viability, T/C (second compound 0.00316 µM, first compound 0.316 µM): 85.2%; viability, T/C (second compound 0.00316 µM, first compound 1 µM): 71.8%; viability, T/C (second compound 0.00316 µM, first compound 3.16 µM): 78.2%; viability, T/C (second compound 0.00316 µM, first compound 10 µM): 49.5%; viability, T/C (second compound 0.01 µM, first compound 0.0316 µM): 102%; viability, T/C (second compound 0.01 µM, first compound 0.1 µM): 89.2%; viability, T/C (second compound 0.01 µM, first compound 0.316 µM): 83.5%; viability, T/C (second compound 0.01 µM, first compound 1 µM): 74.6%; viability, T/C (second compound 0.01 µM, first compound 3.16 µM): 67.7%; viability, T/C (second compound 0.01 µM, first compound 10 µM): 49.8%; viability, T/C (second compound 0.0316 µM, first compound 0.0316 µM): 91.2%; viability, T/C (second compound 0.0316 µM, first compound 0.1 µM): 88.2%; viability, T/C (second compound 0.0316 µM, first compound 0.316 µM): 79.6%; viability, T/C (second compound 0.0316 µM, first compound 1 µM): 71.5%; viability, T/C (second compound 0.0316 µM, first compound 3.16 µM): 72.8%; viability, T/C (second compound 0.0316 µM, first compound 10 µM): 45%; viability, T/C (second compound 0.1 µM, first compound 0.0316 µM): 99.7%; viability, T/C (second compound 0.1 µM, first compound 0.1 µM): 90.5%; viability, T/C (second compound 0.1 µM, first compound 0.316 µM): 76.6%; viability, T/C (second compound 0.1 µM, first compound 1 µM): 74%; viability, T/C (second compound 0.1 µM, first compound 3.16 µM): 73.7%; viability, T/C (second compound 0.1 µM, first compound 10 µM): 46.2%; viability, T/C (second compound 0.316 µM, first compound 0.0316 µM): 87%; viability, T/C (second compound 0.316 µM, first compound 0.1 µM): 79%; viability, T/C (second compound 0.316 µM, first compound 0.316 µM): 72.9%; viability, T/C (second compound 0.316 µM, first compound 1 µM): 74.1%; viability, T/C (second compound 0.316 µM, first compound 3.16 µM): 73.1%; viability, T/C (second compound 0.316 µM, first compound 10 µM): 36%; viability, T/C (second compound 1 µM, first compound 0.0316 µM): 81.4%; viability, T/C (second compound 1 µM, first compound 0.1 µM): 75.4%; viability, T/C (second compound 1 µM, first compound 0.316 µM): 64.2%; viability, T/C (second compound 1 µM, first compound 1 µM): 65.2%; viability, T/C (second compound 1 µM, first compound 3.16 µM): 64.2%; viability, T/C (second compound 1 µM, first compound 10 µM): 34.6%
